{"source": "patent US20210380722A1", "about": "“COMPOSITIONS AND METHODS FOR THE TREATMENT OF MAJOR DEPRESSIVE DISORDER” (Snake River Bioscience, Inc., priority 2019, published 2021)", "key": {"[1]": {"test_system": "wildtype mice", "assay": "C16-ceramide loaded plasma or exosomes injected i.v. into wildtype mice", "format": "in vivo", "conditions": "plasma or exosomes of untreated mice loaded with 2 μM C16-ceramide, FIG. 4e", "protocol": "Plasma or exosomes were loaded with C16 ceramide or deuterated C16 ceramide (Avanti Polar Lipids, USA) by incubation of purified exosomes with 2 μM C16 ceramide or 2 deuterated C16 ceramide in 100 μL PBS for 60 min at 37° C. Plasma samples were directly injected i.v. into healthy mice. Exosomes were centrifuged again at 100,000×g for 70 min, the supernatant was discarded, resuspended in PBS and injected i.v. into healthy mice.\nFor BrdU staining, mice were injected with BrdU 4 times, once every 2 h. Mice were sacrificed 24 h after the first injection and brains were prepared as above. […]\nBehavioral testing was performed between 3:00 p.m. and 6:00 p.m. under diffuse indirect room light. […] The time was recorded during which the mice explored a new environment before they began eating. […] The time that the mouse spent in each of the separate compartments was recorded. […] In the coat state test, the appearance of the coat (groomed vs unkempt coat) was scored on the head, neck, back, and ventrum with either a zero for normal status or a 1 for unkempt status. […] After 24 h the mice were again placed in a water-filled cylinder for 6 min, and the time of mobility or immobility during the last 4 min of the second trial was recorded. […]"}, "[2]": {"test_system": "hippocampal neurons", "conditions": "cited from earlier work; for autophagy: Gulbins et al., Molecular Psychiatry (2018)"}, "[3]": {"test_system": "sphingomyelin synthases", "conditions": "direct inhibition of sphingomyelin synthases; cited from earlier work"}, "[4]": {"test_system": "wildtype mice", "assay": "ceramide concentrations in exosomes from blood plasma of stressed mice (mass spectrometry, kinase assay)", "format": "in vivo", "conditions": "corticosterone via drinking water 120 mg/L for 7 days; FIG. 1c", "protocol": "Corticosterone (Sigma, St. Louis, Mo.) was administered to mice via the drinking water at 120 mg/L for 7 days. In the chronic unpredictable stress model (CUS), the mice were challenged with unpredictable environmental stress for 8 days, i.e., a reversal of the light/dark cycle, 3 h of 45° tilting of the cage twice each week, shaking at 125 rpm, food deprivation for 14 h, predator sounds (15 min) or wet cages (1 h) with two forms of stress per day in a randomized (unpredictable) order. Blood was collected from the heart into heparin-coated needles and tubes immediately after sacrifice by cervical dislocation. Blood plasma was centrifuged at 3500 rpm for 5 min at 4° C. in an Eppendorf centrifuge. […]\n10 μL of blood plasma or of resuspended exosomes (corresponding to 50 μL plasma) was added to 190 μL H2O and extracted in 600 μL CHCl3:CH3OH:1N HCl (100:100:1, v/v/v). […] Ceramide amounts were determined by comparison with a standard curve; C16 to C24 ceramides were used as substrates.\nSamples were subjected to lipid extraction with 1.5 mL methanol/chloroform (2:1, v:v). […] Dried residues were reconstituted in 200 μL of a 95:5 (v:v) mixture of high-performance liquid chromatography (HPLC) eluents B:A (see below), thoroughly vortexed for 10 min at 1,500 rpm, centrifuged at 2,200×g for 10 min at 4° C., and subjected to mass spectrometric sphingolipid quantification. […]"}, "[5]": {"test_system": "untreated mice", "assay": "high dose of corticosterone in untreated mice, symptoms of major depression after 24 h", "format": "in vivo", "conditions": "1 mg/kg, data not shown", "protocol": "To exclude the possibility that investigators were measuring the effects of corticosterone that might have remained in the plasma of these mice, untreated mice were injected with a high dose of corticosterone (1 mg/kg) and the presence of biochemical and behavioral symptoms of major depression after 24 h were assessed."}}, "data": [{"smiles": "CCCCCCCCCCCCC/C=C/[C@@H](O)[C@H](CO)NC(=O)CCCCCCCCCCCCCCC", "note": "[C16-ceramide, C16 ceramide]", "values": [{"measurement": "induction of MDD (behavioral changes and neuronal proliferation)", "setting": "[1]", "result": "sufficient to induce MDD within 24 h"}]}, {"smiles": "S=C(S)OC1CC2CC1C1CCCC21", "note": "(centres unmarked) [D609]", "values": [{"measurement": "autophagy", "setting": "[2]", "result": "activation of autophagy"}, {"measurement": "ceramide in the endoplasmic reticulum (ER)", "setting": "[2]; direct inhibition of sphingomyelin synthases", "result": "rapid accumulation of ceramide in the ER"}, {"measurement": "stress-induced MDD", "setting": "[3]", "result": "rapid reversal of stress-induced MDD"}]}, {"smiles": "CN(C)CCC=C1c2ccccc2CCc2ccccc21", "note": "[amitriptyline]", "values": [{"measurement": "autophagy", "setting": "[2]", "result": "induce autophagy in hippocampal neurons"}]}, {"smiles": "CNCCC(Oc1ccc(C(F)(F)F)cc1)c1ccccc1", "note": "(centres unmarked) [fluoxetine]", "values": [{"measurement": "autophagy", "setting": "[2]", "result": "induce autophagy in hippocampal neurons"}]}, {"smiles": "C[C@]12C[C@H](O)[C@H]3[C@@H](CCC4=CC(=O)CC[C@@]43C)[C@@H]1CC[C@@H]2C(=O)CO", "note": "[glucocorticosterone, Corticosterone]", "values": [{"measurement": "ceramide concentrations in exosomes in the blood plasma", "setting": "[4]", "result": "marked increase in ceramide concentrations"}, {"measurement": "induction of MDD (biochemical and behavioral symptoms of major depression)", "setting": "[5]", "result": "not sufficient to induce MDD"}]}]}
